Experimental data from patent US8389440B2, “Synergistic insecticide mixtures” (Bayer Cropscience AG, priority 2002, dated 2013).

Experiments:
[1] = tested on: Heliothis armigera caterpillars; experiment: Heliothis armigera test; type: in vivo; conditions: found effect, dipped soya bean shoots
[2] = tested on: mustard beetle larvae (Phaedon cochleariae); experiment: Phaedon larvae test; type: in vivo; conditions: found effect, dipped cabbage leaves
[3] = tested on: army worm caterpillars (Spodoptera frugiperda); experiment: Spodoptera frugiperda test; type: in vivo; conditions: found effect, dipped cabbage leaves
Source text: Spodoptera Frugiperda Test

[4] = tested on: diamond-back moth caterpillars (Plutella xylostella, resistant strain); conditions: found effect, dipped cabbage leaves
Experimental: Plutella Test, Resistant Strain
After the desired period, the destruction in % is determined. 100% means that all of the caterpillars have been destroyed; 0% means that no caterpillars have been destroyed.

| Compound | LC50 after 6 days [1] [ppm] | LC95 after 3 days [2] [ppm] | LC50 after 6 days [3] [ppm] | LC50 after 6 days [4] [ppm] |
| --- | --- | --- | --- | --- |
| CC[C@H](C)[C@H]1O[C@]2(C=C[C@@H]1C)C[C@@H]1C[C@@H](C/C=C(\C)[C@@H](O[C@H]3C[C@H](OC)[C@@H](O[C@H]4C[C@H](OC)[C@@H](O)[C@H](C)O4)[C@H](C)O3)[C@@H](C)/C=C/C=C3\CO[C@@H]4[C@H](O)C(C)=C[C@@H](C(=O)O1)[C@]34O)O2 [Avermectin, abamectin] | 0.014 | 0.281 | 5.553 |  |
| CN/C(=N\[N+](=O)[O-])NCC1CCOC1 (centres unmarked) [Dinotefuran, dinotefuran] | 13.165 | 42.07 | 2.861 | 27.621 |
| emamectin benzoate |  |  |  | 0.174 |
